Source: ChEMBL document CHEMBL5331068, “Briarane-type diterpenoids, the inhibitors of osteoclast formation by interrupting Keap1-Nrf2 interaction and activating Nrf2 pathway” (Eur J Med Chem, 2023)
Calls of active or inactive are those of the source. The calls are words filed in the database; no cut-off is given here.

Tests used:
[1] = Cytotoxicity against C57BL/6 mouse BMDM cells incubated for 48 hrs by MTT assay; assay type: toxicity, cell-based; conditions: BMDM cells (bone marrow-derived macrophages)
[2] = target: Kelch-like ECH-associated protein 1 (Homo sapiens, UniProt Q14145); test: Binding affinity to recombinant human Keap1 by SPR analysis
BMDM = test: Anti-osteoclastogenesis activity in C57BL/6 mouse BMDM cells assessed as inhibition of RANKL-induced osteoclastogenesis at 10 uM incubated for 7 days in the presence of M-CSF by TRAP-staining based microscopic analysis relative to control; assay type: functional; conditions: C57BL/6, BMDM, 168 h, time 7 day

Sequence of Kelch-like ECH-associated protein 1 (Q14145 whole entry): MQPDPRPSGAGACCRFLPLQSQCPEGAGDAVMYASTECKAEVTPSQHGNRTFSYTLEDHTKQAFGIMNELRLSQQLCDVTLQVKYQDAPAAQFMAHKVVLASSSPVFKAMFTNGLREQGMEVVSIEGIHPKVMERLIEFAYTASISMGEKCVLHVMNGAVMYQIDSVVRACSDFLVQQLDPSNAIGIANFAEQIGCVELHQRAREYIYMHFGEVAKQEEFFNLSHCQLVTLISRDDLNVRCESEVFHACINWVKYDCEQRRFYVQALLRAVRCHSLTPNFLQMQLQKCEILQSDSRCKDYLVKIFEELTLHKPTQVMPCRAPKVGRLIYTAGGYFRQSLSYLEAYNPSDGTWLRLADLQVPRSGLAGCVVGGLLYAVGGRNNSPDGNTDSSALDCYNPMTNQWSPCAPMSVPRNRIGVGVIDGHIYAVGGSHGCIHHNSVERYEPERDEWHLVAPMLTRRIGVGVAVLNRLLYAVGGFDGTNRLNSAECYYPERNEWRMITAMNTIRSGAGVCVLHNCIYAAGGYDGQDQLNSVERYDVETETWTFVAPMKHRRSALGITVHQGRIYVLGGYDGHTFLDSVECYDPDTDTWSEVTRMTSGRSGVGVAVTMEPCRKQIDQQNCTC

Activity [2]	Structure (SMILES)	CC50 at 48 h [1] [µM]	inhibition at 10 µM (BMDM) [%]
inactive	CC(=O)O[C@H]1[C@@H](OC(=O)CC(C)C)[C@](O)(CO)[C@@H]2[C@H](OC(C)=O)[C@@]3(O)[C@H](/C=C(CCl)\C=C/[C@H](OC(C)=O)[C@@]2(C)[C@H]1OC(C)=O)OC(=O)[C@@H]3C	> 50	20.9
inactive	CC(=O)O[C@H]1[C@@H](O)[C@](O)(CO)[C@@H]2[C@H](OC(C)=O)[C@@]3(O)[C@H](/C=C(COC(=O)CC(C)C)\C=C/[C@H](OC(C)=O)[C@@]2(C)[C@H]1OC(C)=O)OC(=O)[C@@H]3C	> 50	100
Active	C=C1/C=C\[C@H](OC(C)=O)[C@@]2(C)[C@@H](OC(C)=O)CC[C@]3(CO3)[C@@H]2[C@H](OC(C)=O)[C@]2(O)[C@@H](C)C(=O)O[C@H]2[C@H]1Cl	> 50	97.1
inactive	CC(=O)O[C@H]1/C=C\C(CO)=C/[C@@H]2OC(=O)[C@H](C)[C@@]2(O)[C@@H](OC(C)=O)[C@H]2[C@@](O)(CO)[C@H](O)[C@H](OC(=O)CC(C)C)[C@H](OC(C)=O)[C@]12C	> 50	62.8
inactive	CC(=O)O[C@H]1[C@@H](OC(=O)CC(C)C)[C@](O)(CO)[C@@H]2[C@H](OC(C)=O)[C@@]3(O)[C@H](/C=C(CO)\C=C/[C@H](OC(C)=O)[C@@]2(C)[C@H]1OC(C)=O)OC(=O)[C@@H]3C	> 50	34.8
Active	C=C1CC[C@H](OC(C)=O)[C@@]2(C)[C@@H](OC(C)=O)C[C@@H](OC(C)=O)[C@]3(CO3)[C@@H]2[C@H](OC(C)=O)[C@]2(O)[C@@H](C)C(=O)O[C@H]2[C@H]1Cl	> 50	13.5
–	C=C1/C=C\[C@@H](OC(=O)COC(=O)CC(C)C)[C@@]2(C)[C@@H](OC(C)=O)[C@@H](OC(C)=O)[C@@H](OC(=O)CC(C)C)[C@]3(CO3)[C@@H]2[C@H](OC(C)=O)[C@]2(O)[C@@H](C)C(=O)O[C@H]2C1Cl (stereo not given in full)	> 50	84.3
–	C=C1[C@H]2O[C@]3([C@@H](C)C(=O)O[C@H]3[C@H]1Cl)[C@@H](OC(C)=O)[C@H]1[C@@]3(CO3)[C@H](OC(=O)CC(C)C)C[C@H](OC(C)=O)[C@]1(C)[C@@H](OC(C)=O)[C@@H]2OC(C)=O	> 50	51.7
Active	C=C1[C@H](OC(=O)CC(C)C)C[C@H](OC(C)=O)[C@@]2(C)[C@@H](OC(C)=O)C[C@@H](OC(C)=O)[C@]3(CO3)[C@@H]2[C@H](OC(C)=O)[C@]2(O)[C@@H](C)C(=O)O[C@H]2[C@H]1Cl	> 50	100
–	CC(=O)O[C@H]1/C=C\C(CO)=C/[C@@H]2OC(=O)[C@H](C)[C@@]2(O)[C@@H](OC(C)=O)[C@H]2[C@@]3(CO3)[C@H](OC(C)=O)C[C@H](OC(=O)CC(C)C)[C@]12C	> 50	68
–	CC(=O)OC1[C@@H](OC(=O)CC(C)C)[C@]2(CO2)[C@@H]2[C@H](OC(C)=O)[C@@]3(O)[C@H](/C=C(CCl)\C=C/[C@H](OC(=O)COC(=O)CC(C)C)[C@@]2(C)[C@H]1OC(C)=O)OC(=O)[C@@H]3C (stereo not given in full)	> 50	86.6
–	CCOCC1=C/[C@@H]2OC(=O)[C@H](C)[C@@]2(O)[C@@H](OC(C)=O)[C@H]2[C@@]3(CO3)[C@H](OC(=O)CC(C)C)C[C@H](OC(C)=O)[C@]2(C)[C@@H](OC(C)=O)/C=C\1	> 50	51.2
–	CC(=O)O[C@H]1/C=C\C(CCl)=C/[C@@H]2OC(=O)[C@H](C)[C@@]2(O)[C@@H](OC(C)=O)[C@H]2[C@@]3(CO3)[C@H](OC(=O)CC(C)C)C[C@H](OC(C)=O)[C@]12C	> 50	29.1
–	CC(=O)O[C@H]1[C@@H](OC(=O)CC(C)C)[C@]2(CO2)[C@@H]2[C@H](OC(C)=O)[C@@]3(O)[C@H](/C=C(CO)\C=C/[C@H](OC(C)=O)[C@@]2(C)[C@H]1OC(C)=O)OC(=O)[C@@H]3C	> 50	55.8
Active	C=C1[C@H]2O[C@]3([C@@H](C)C(=O)O[C@H]3[C@H]1Cl)[C@@H](OC(C)=O)[C@H]1[C@@](O)(CCl)CC[C@H](OC(C)=O)[C@]1(C)[C@@H](OC(C)=O)[C@@H]2OC(C)=O	> 50	98.8
inactive	CC(=O)O[C@H]1[C@@H](O)[C@](O)(CO)[C@@H]2[C@H](OC(C)=O)[C@@]3(O)[C@H](/C=C(CO)\C=C/[C@H](OC(C)=O)[C@@]2(C)[C@H]1OC(=O)CC(C)C)OC(=O)[C@@H]3C	> 50	57.6
inactive	CC(=O)O[C@H]1[C@@H](OC(=O)CC(C)C)[C@](O)(CO)[C@@H]2[C@H](OC(C)=O)[C@@]3(O)[C@H](/C=C(CO)\C=C/[C@H](OC(=O)COC(=O)CC(C)C)[C@@]2(C)[C@H]1OC(C)=O)OC(=O)[C@@H]3C	> 50	30.8
–	CCOCC1=C/[C@@H]2OC(=O)[C@H](C)[C@@]2(O)[C@@H](OC(C)=O)[C@H]2[C@@]3(CO3)[C@H](OC(=O)CC(C)C)C(OC(C)=O)[C@H](OC(C)=O)[C@]2(C)[C@@H](OC(=O)COC(=O)CC(C)C)/C=C\1 (stereo not given in full)	> 50	41.9
Active	C=C1[C@H](Cl)[C@@H]2OC(=O)[C@H](C)[C@]23O[C@]1(O)C[C@H](OC(C)=O)[C@@]1(C)[C@@H](OC(C)=O)C[C@@H](OC(C)=O)[C@]2(CO2)[C@@H]1[C@@H]3OC(C)=O	> 50	29.3
–	CC(=O)O[C@H]1CC/C(C)=C\[C@@H]2OC(=O)[C@H](C)[C@@]2(O)[C@@H](OC(C)=O)[C@H]2[C@]3(CC[C@H](OC(C)=O)[C@]12C)CO3 [JUNCEELLOLIDE K]	> 50	86.6
–	CC(=O)O[C@H]1/C=C\C(CCl)=C/[C@@H]2OC(=O)[C@H](C)[C@@]2(O)[C@@H](OC(C)=O)[C@H]2[C@@]3(CO3)[C@H](OC(C)=O)C[C@H](OC(=O)CC(C)C)[C@]12C	> 50	18
Active	C=C1[C@H]2O[C@]3([C@@H](C)C(=O)O[C@H]3[C@H]1Cl)[C@@H](OC(C)=O)[C@H]1[C@@]3(CO3)[C@H](OC(C)=O)C[C@H](OC(C)=O)[C@]1(C)[C@@H](OC(C)=O)[C@@H]2OC(C)=O	> 50	37.1
–	C=C1/C=C/[C@H](OC(C)=O)[C@@]2(C)[C@@H](OC(C)=O)CC[C@]3(CO3)[C@@H]2[C@H](OC(C)=O)[C@]2(O)[C@@H](C)C(=O)O[C@H]2[C@H]1Cl [JUNCEELLOLIDE C]	> 50	75
–	C=C1CC[C@H](OC(C)=O)[C@@]2(C)[C@@H](OC(C)=O)C[C@@H](OC(=O)CC(C)C)[C@]3(CO3)[C@@H]2[C@H](OC(C)=O)[C@]2(O)[C@@H](C)C(=O)O[C@H]2[C@H]1Cl [JUNCENOLIDE J]	> 50	98.8
